# Literature values as cited in patent US20230126271A1, “DEGRADER-ANTIBODY CONJUGATES AND METHODS OF USING SAME” (Anglex, Inc., priority 2020, published 2023).
# Legend:
# [1] = in vivo
# [2] = in vivo; remark: listed apart in the source
Structure (SMILES),toxicity in the clinic [1],patients who experienced heart attacks while being treated [2]
CN(C)CC#Cc1ccc(OCCCc2sc(N3CCc4cccc(C(=O)Nc5nc6ccccc6s5)c4C3)nc2C(=O)O)c(F)c1 [A115463],on-target and dose-limiting thrombocytopenia,–
CC1(C)CCC(c2ccc(Cl)cc2)=C(CN2CCN(c3ccc(C(=O)NS(=O)(=O)c4ccc(N[C@H](CCN5CCOCC5)CSc5ccccc5)c(S(=O)(=O)C(F)(F)F)c4)cc3)CC2)C1 [ABT 263],on-target and dose-limiting thrombocytopenia,–
"COc1ccc(/C=C\c2cc(OC)c(OC)c(OC)c2)cc1OP(=O)(O)O [CA4P, Combretastatin]",–,seven
